{
  "source": "patent US20160151410A1",
  "about": "“CLEARANCE OF BIOACTIVE LIPIDS FROM MEMBRANE STRUCTURES BY CYCLODEXTRINS” (The Trustees of Columbia University in the City of New York, priority 2013, published 2016)",
  "molecules": {"B1": {"name": "CRP: purified human CRP, binding protein of lysophosphatidylcholine (protein, UniProt P02741 19-224, looked up)", "C-reactive protein": "QTDMSRKAFVFPKESDTSYVSLKAPLTKPLKAFTVCLHFYTELSSTRGYSIFSYATKRQDNEILIFWSKDIGYSFTVGGSEILFEVPEVTVAPVHICTSWESASGIVEFWVDGKPRVRKSLKKGYTVGAEASIILGQEQDSFGGNFEGSQSLVGDIGNVNMWDFVLSPDEINTIYLGGPFSPNVLNWRALKYEVQGEVFTKPQLWP"}},
  "key": {"[1]": {"system": "classical pathway of complement system", "test": "Complement activation (C3 fixation) by LIPC- or CEase-digested immobilized LDL with human serum", "assay_type": "biochemical", "experimental": "96-well MaxiSorp plates were coated with fresh human LDL (A, D, E), VLDL (B), or NaOH-hydrolyzed LDL (C). After blocking with BSA, the plates, except (C), were digested with LIPC. To test complement activation, the plates were incubated with diluted native human serum (N), C1q-depleted human serum (Cd), factor B-depleted human serum (Bd), or human serum containing Mg-EGTA (ME). C3 fixation on the plate was detected with a monoclonal anti-C3d antibody followed by HRP-conjugated secondary antibody. Specific conditions for LIPC digestion and HRP-catalyzed color development of each experiment were outlined as following: LIPC was used at 10 μg/ml for (A, B, E), 0-50 μg/ml for (D), and no LIPC for (C). LIPC degradation was 1 hour for (D), 2 hours for (A, B), and 0-2 hours for (E). Color development was 15 minutes for (A, B, C, E) and 10 minutes for (D). For NaOH hydrolysis of LDL, 1.35 mg/ml of LDL was incubated in 0.15M NaOH solution at 25° C. for up to 60 minutes. Aliquots were taken out and neutralized with 0.15M HCl at 1, 10, 20, 60 minutes.\nLIPC and CEase, both having 8 μUnits of phospholipase A1 activity but having 3 μUnits and 8125 μUnits of triglyceride hydrolase activity respectively, were used for 2 hours digestion of immobilized LDL. Complement activation with diluted native human serum is then determined as in FIG. 1. The HRP-catalyzed color development was 15 minutes.\nHuman LDL coating and 1 hour (C) or 2 hours (A, B) LIPC digestion was performed as described in FIG. 1. (A) For complement activation, 0-50 μM of phosphocholine was added into diluted native human serum. […]\n(§1) After thorough washing of the plate, C3 fixation and final membrane attack complex formation on the plate were determined with anti-human C3d antibody and anti-human C5b-9 antibody, in combination with HRP-conjugated secondary antibody, respectively. […] The final peroxidase activity was monitored at 450 nm with 3,3′,5,5′-tetramethyl-benzidine and hydrogen peroxide as substrates after 10 or 15 minutes reaction at room temperature."}, "[2]": {"system": "lysophospholipids from LIPC-digested human LDL", "test": "Extraction of lysophospholipids from LIPC-digested LDL by cyclodextrins, read out as complement C3 fixation", "assay_type": "biochemical", "conditions": "for complement activation after cyclodextrin extraction of LIPC-digested LDL: 20 mM cyclodextrin", "experimental": "Immobilized LDL was digested with LIPC, then 20 mM of different cyclodextrins (A), or 0-20 mM HPαCD (B), or 20 mM HPαCD (C), or 2 mM of HPαCD in combination with 0.5 mg/ml of native LDL (D) are used for 20 hours extraction (A, B, D), or 0-20 hours extraction (C). Complement activation with diluted native human serum was then performed. MβCD—methyl-β-cyclodextrin; HPβCD—hydroxypropyl-β-cyclodextrin.\n(§2) 96-well NUNC MaxiSorp plates were coated with 40 μl of human LDL, VLDL, or NaOH-hydrolyzed LDL, all at 200 μg/ml in PBS, at 4° C. overnight then 37° C. for 1 hour, and remaining binding sites were blocked with 3% BSA in PBS at 37° C. for 1 hour. The wells were washed and then incubated with 40 μl of LIPC or CEase in PBS containing 2% BSA at 37° C. for 1 or 2 hours as indicated in Results section, and the degradation reaction was stopped by washing the plate with PBS. For complement system activation, the resulted plate was incubated with 20 μl of 1:1 diluted human sera at 21° C. for 30 minutes. The diluent for serum dilution was PBS containing calcium and magnesium, and human sera that were utilized in our study were native serum, C1q-depleted serum, factor B-depleted serum, native serum with addition of 10 mM of MgCl2 and 20 mM EGTA (Mg-EGTA), and native serum with addition of 10 mM EDTA.\nAfter thorough washing of the plate, C3 fixation and final membrane attack complex formation on the plate were determined with anti-human C3d antibody and anti-human C5b-9 antibody, in combination with HRP-conjugated secondary antibody, respectively. The monoclonal anti-human C3d antibody is reactive to all C3d-containing fragments of C3, but not with C3 itself, so it detects C3 fixation on the plate and not C3 absorption. The final peroxidase activity was monitored at 450 nm with 3,3′,5,5′-tetramethyl-benzidine and hydrogen peroxide as substrates after 10 or 15 minutes reaction at room temperature.\nWe tested several cyclodextrins for the ability to extract lysophospholipids from LIPC-digested human LDL. Since lysophospholipid level in lipoprotein is directly related to complement C3 fixation, we use C3 fixation as an indicative parameter for levels of lysophospholipids in lipoprotein. […] We also tested HPαCD upon shuttling of lysophospholipids between LIPC-digested LDL and native LDL, a biological feature of lipid transport (FIG. 4D)."}, "[3]": {"system": "rabbit cornea after alkali burn", "test": "Rabbit corneal neovascularization by alkali burn", "assay_type": "in vivo", "experimental": "Alkali burn on central cornea was performed with 6 mm filter paper disc wetted with 8 μl of 1M NaOH. Cornea were then extensively washed with PBS, followed by treatment with control formula (left eye) and cyclodextrin formula (right eye) as described in Materials and Methods. The bottom two pictures are fluorescein angiograms showing the leaking new vessels in the cornea. White arrows in pictures show corneal neovascularization.\n3 New Zealand white rabbits, aged 4-5 months and weighing 1.8-2.6 kg, were obtained from Charles River Laboratories (Wilmington, Mass.) and acclimatized for several weeks before the experiments started. All of the rabbits were anesthetized using ketamine (42 mg/kg) and xylazine (7 mg/kg) intramuscularly. 0.5% proparacaine hydrochloride (Akorn, Inc. Lake Forest, Ill.) was applied topically. Alkali burn on central cornea of both eyes was performed with 6 mm round disc of Whatman No. 1 filter paper wetted with […] of 1M NaOH for exactly 1 minute, filter paper was then removed and the cornea was extensively irrigated with 200 ml of PBS for 10 minutes. Left eye and right eye were then treated with control formula (6 mg/ml of POPC liposome in PBS) and cyclodextrin formula (50 mM HPαCD and 16.7 mM HPβCD in control formula), respectively. […]"}, "ARPE-19 cells": {"system": "ARPE-19 cells", "assay_type": "cell-based", "experimental": "(A, B) 40-50% confluent ARPE-19 cells in 96-well plate were cultured with serum-free medium for 24 hours, then incubated with 0.1 ml of serum-free medium containing 0-100 μM 1-Palmitoyl-sn-glycero-3-phosphocholine (LPC) for 22 hours. Cell morphology of control cells and 100 μM LPC treated cells was observed under a microscope, as shown in (B). The cells were then incubated with 0.15 ml of serum-free medium containing 0.5 mg/ml MTT at 37° C. for 2 hours. Formation of formazan is detected at 540 nm with 0.1 ml of DMSO as solvent (A). (C) As performed in (A), but with 100 μM LPC pre-incubated for 1 hour with 0-20 mM HPαCD, significant protection of HPαCD on ARPE-19 cells was observed when used at 0.5 mM or greater in medium (marked with *).\nHuman retinal pigment epithelial cell line, ARPE-19, was purchased from ATCC (Manassas, Va.). The cells were cultured in Dulbecco's modified Eagle's medium supplemented with 10% of heat-inactivated fetal bovine serum (FBS), 100 IU/ml of penicillin, and […] of streptomycin (all cell culture products from Invitrogen-Gibco, Rockville, Md.). Cells were maintained at 37° C. in a 5% CO2 incubator with medium change every 3-4 days. […]\nCell viability was determined with the colorimetric MTT metabolic activity assay. […] After removal of cell culture medium, formation of formazan from MTT reduction was detected at 540 nm with 0.1 ml of DMSO as solvent."}, "C5b-9": {"system": "C5b-9", "test": "Terminal complement complex (C5b-9) formation by LIPC-digested LDL", "assay_type": "biochemical", "conditions": "human serum with additional CRP", "experimental": "Immobilized LDL was digested by LIPC and then incubated with human serum with or without additional CRP. C3 fixation (A) and C5b-9 formation (B) was determined by specific primary and HRP-conjugated secondary antibodies.\nas §2, with “The diluent for serum dilution was PBS containing calcium and magnesium, and human sera that were utilized in our study were native serum, C1q-depleted serum, factor B-depleted serum, native serum with addition of 10 mM of MgCl2 and 20 mM EGTA (Mg-EGTA), and native serum with addition of 10 mM EDTA.” left out\nas §1"}},
  "note": "Entries after “also recorded” stand apart in the source; their conditions may differ.",
  "data": [
    {"molecule": "C[N+](C)(C)CCOP(=O)([O-])O", "note": "[phosphocholine, reference compound]", "values": [
      {"measurement": "complement activation by LIPC-digested LDL, phosphocholine added into serum", "setting": "[1]; 0-50 μM phosphocholine in diluted native human serum", "value": "significantly decreases complement activation"}
    ]},
    {"molecule": "methyl-β-cyclodextrin [reference compound]", "values": [
      {"measurement": "complement activation after cyclodextrin extraction of LIPC-digested LDL", "setting": "[2]; 20 hours extraction", "value": "much weaker effects"}
    ]},
    {"molecule": "2-hydroxypropyl-β-cyclodextrin [reference compound]", "values": [
      {"measurement": "complement activation after cyclodextrin extraction of LIPC-digested LDL", "setting": "[2]; 20 hours extraction", "value": "much weaker effects"}
    ]},
    {"molecule": "2-hydroxypropyl-α-cyclodextrin [HPαCD]", "values": [
      {"measurement": "neovascularization area and vessel length", "setting": "[3]; FIG. 7 representative result", "value": "reduced dramatically"},
      {"measurement": "inhibition of corneal neovascularization", "setting": "[3]; topical after alkali burn, right eye vs control formula left eye, three rabbits", "value": "dramatic effect of HPαCD extraction on inhibition of corneal neovascularization"},
      {"measurement": "extraction of complement-activating lysophospholipids, dose and time dependence", "setting": "[2]; 0-20 mM HPαCD for 20 hours, 20 mM HPαCD for 0-20 hours", "value": "dose- and time-dependent"},
      {"measurement": "extraction of lysophospholipids, HPαCD alone at low level", "setting": "[2]; 2 mM HPαCD alone, 20 hours extraction", "value": "cannot extract much lysophospholipids"},
      {"measurement": "extraction of lysophospholipids, HPαCD in combination with native LDL", "setting": "[2]; 2 mM HPαCD with 0.5 mg/ml native LDL, 20 hours extraction", "value": "extract the most lysophospholipids"},
      {"measurement": "complement activation after cyclodextrin extraction of LIPC-digested LDL", "setting": "[2]; 20 hours extraction", "value": "significantly less complement activation; also recorded: Significant extraction of lysophospholipids"},
      {"measurement": "HPαCD concentration giving significant protection of ARPE-19 cells", "setting": "ARPE-19 cells; 100 μM LPC pre-incubated 1 hour with 0-20 mM HPαCD", "value": "≥ 0.5", "unit": "mM"}
    ]},
    {"molecule": "CCCCCCCCCCCCCCCC(=O)OC[C@@H](O)COP(=O)([O-])OCC[N+](C)(C)C", "note": "[1-palmitoyl-sn-glycero-3-phosphocholine, reference compound]", "values": [
      {"measurement": "concentration inducing ARPE-19 cell death", "setting": "ARPE-19 cells; serum-free medium, 22 hours, 0-100 μM tested", "value": "≥ 20", "unit": "μM"}
    ]},
    {"molecule": "OC[C@H]1O[C@@H]2O[C@H]3[C@H](O)[C@@H](O)[C@@H](O[C@H]4[C@H](O)[C@@H](O)[C@@H](O[C@H]5[C@H](O)[C@@H](O)[C@@H](O[C@H]6[C@H](O)[C@@H](O)[C@@H](O[C@H]7[C@H](O)[C@@H](O)[C@@H](O[C@H]8[C@H](O)[C@@H](O)[C@@H](O[C@H]1[C@H](O)[C@H]2O)O[C@@H]8CO)O[C@@H]7CO)O[C@@H]6CO)O[C@@H]5CO)O[C@@H]4CO)O[C@@H]3CO", "note": "[β-cyclodextrin, reference compound]", "values": [
      {"measurement": "complement activation after cyclodextrin extraction of LIPC-digested LDL", "setting": "[2]; 20 hours extraction", "value": "much weaker effects"}
    ]},
    {"molecule": "OC[C@H]1O[C@@H]2O[C@H]3[C@H](O)[C@@H](O)[C@@H](O[C@H]4[C@H](O)[C@@H](O)[C@@H](O[C@H]5[C@H](O)[C@@H](O)[C@@H](O[C@H]6[C@H](O)[C@@H](O)[C@@H](O[C@H]7[C@H](O)[C@@H](O)[C@@H](O[C@H]1[C@H](O)[C@H]2O)O[C@@H]7CO)O[C@@H]6CO)O[C@@H]5CO)O[C@@H]4CO)O[C@@H]3CO", "note": "[α-cyclodextrin, reference compound]", "values": [
      {"measurement": "complement activation after cyclodextrin extraction of LIPC-digested LDL", "setting": "[2]; 20 hours extraction", "value": "much weaker effects"}
    ]},
    {"molecule": "B1", "values": [
      {"measurement": "terminal complement complex formation with additional CRP", "setting": "C5b-9", "value": "blocks the terminal complement complex formation"},
      {"measurement": "C3 fixation by LIPC-digested LDL with additional CRP", "setting": "[1]; native human serum supplemented with purified human CRP", "value": "dose-dependently enhances its activity on complement activation; also recorded: enhances C3 fixation"}
    ]}
  ]
}
